In ChEMBL document CHEMBL6120996, “Discovery and optimization of 1,2,4-triazole derivatives as novel ferroptosis inhibitors” (Eur J Med Chem, 2025):
Calls of active or inactive are those of the source. No cut-off for these calls is given here.

Legend:
[1] = Inhibition of RSL3 induced ferroptosis in H9c2 cells assessed as cell viability incubated for 24 hrs by CellTiter-LumiTM assay; format: functional, cell-based; details: Rattus norvegicus, H9c2, 24 h
[2] = Microsomal stability in human liver microsomes assessed as hepatic clearance at 0.1 uM by LC-MS/MS analysis; format: ADME, Microsome
786-0 [3] = assay: Metal chelating activity assessed as Fe2+ chelation in human 786-0 cells assessed as intracellular ferrous ion level at 1 uM by FerroOrange fluorescent probe based assay; format: cell-based
Mus musculus [4] = assay: Anti-ferroptotic activity in ConA-induced C57 mouse liver injury model assessed as decrease in acute liver injury at 10 mg/kg, ip pre-administered one day followed by treated with ConA measured after 24 hrs by HE staining based analysis; format: functional, organism-based; details: time 48.0 hrs
786-0 [5] = assay: Effect on FTH1 expression in human 786-0 cells in presence of 0.25 uM RSL3 at 1 uM incubated for 2.5 hrs by Western blot analysis; format: functional, cell-based
[6] = Microsomal stability in rat liver microsomes assessed as hepatic extraction ratio at 0.1 uM by LC-MS/MS analysis; format: ADME, Microsome; details: read-out: ERH
[7] = Metal chelating activity assessed as Fe2+ chelation assessed as absorbance peak at 430 nm by UV-vis spectroscopy; details: dose 1.0 µM
786-0 [8] = assay: Effect on ACSL4 expression in human 786-0 cells at 1 uM incubated for 2.5 hrs by Western blot analysis; format: functional, cell-based
786-0 [9] = assay: Inhibition of RSL3-induced ferroptosis in human 786-0 cells assessed as cell viability incubated for 24 hrs by CellTiter-LumiTM assay; format: functional, cell-based; details: 786-0, 24 h
786-0 [10] = assay: Effect on GPX4 expression in human 786-0 cells at 1 uM incubated for 2.5 hrs by Western blot analysis; format: functional, cell-based
786-0 [11] = assay: Inhibition of RSL3-induced ferroptosis in human 786-0 cells assessed as cell protection by assessing cell morphology at 1 uM incubated for 24 hrs; format: functional, cell-based
786-0 [12] = assay: Effect on TFRC expression in human 786-0 cells at 1 uM incubated for 2.5 hrs by Western blot analysis; format: functional, cell-based
786-0 [13] = assay: Effect on IRP1 expression in human 786-0 cells at 1 uM incubated for 2.5 hrs by western blot analysis; format: functional, cell-based
786-0 [14] = assay: Inhibition of RSL3-induced ferroptosis in human 786-0 cells assessed as cell viability by assessing cell morphology incubated for 24 hrs by CellTiter-LumiTM plus luminescent cell viability assay; format: functional, cell-based; details: 786-0, 24 h
[15] = Inhibition of erastin induced ferroptosis in human 786-0 cells assessed as cell viability incubated for 24 hrs by CellTiter-LumiTM assay; format: functional, cell-based; details: 786-0, 24 h
786-0 [16] = assay: Effect on erastin-induced decrease in GSH level in human 786-0 cells at 1 uM incubated for 10 hrs by Total intracellular GSH assay; format: functional, cell-based
786-0 [17] = assay: Effect on IRP1 expression in human 786-0 cells in presence of 0.25 uM RSL3 at 1 uM incubated for 2.5 hrs by Western blot analysis; format: functional, cell-based
[18] = Microsomal stability in rat liver microsomes assessed as half life at 0.1 uM by LC-MS/MS analysis; format: ADME, Microsome; details: liver microsomes
786-0 [19] = assay: Effect on FTL expression in human 786-0 cells at 1 uM incubated for 2.5 hrs by western blot analysis; format: functional, cell-based
786-0 [20] = assay: Inhibition of H2O2 induced necrosis in human 786-0 cells assessed as cell viability at 1 uM incubated for 24 hrs by CellTiter-LumiTM assay; format: functional, cell-based
786-0 [21] = assay: Inhibition of RSL3 induced lipid-ROS accumulation in human 786-0 cells incubated for 2.5 hrs by C11-BODIPY 581/591 staining coupled with flow cytometry analysis; format: functional, cell-based; details: dose 0.1-1 µM
786-0 [22] = assay: Inhibition of RSL3 induced lipid-ROS accumulation in human 786-0 cells assessed as fast elimination at 1 uM measured after 0.25 to 2.5 hrs by C11-BODIPY 581/591 staining coupled with flow cytometry analysis; format: functional, cell-based; details: time 0.25-2.5 hrs
[23] = Microsomal stability in rat liver microsomes assessed as hepatic clearance at 0.1 uM by LC-MS/MS analysis; format: ADME, Microsome
786-0 [24] = assay: Effect on SLC7A11 expression in human 786-0 cells at 1 uM incubated for 2.5 hrs by Western blot analysis; format: functional, cell-based
[25] = Metabolic stability in rat plasma assessed as half life at 1 uM by LC-MS/MS analysis; format: ADME, cell-free
[26] = Suppression of autoxidation of liposomes egg ( unknown origin) phosphatidylcholine lipids as substrate at 0.1 to 2.5 uM incubated for 5 min by C11-BODIPY 581/591 dye based fluorescent assay; format: functional; details: dose 0.1-2.5 µM
[27] = Inhibition of RSL3 induced ferroptosis in human HT-1080 cells assessed as cell viability incubated for 24 hrs by CellTiter-LumiTM assay; format: functional, cell-based; details: HT-1080, 24 h
786-0 [28] = assay: Effect on FTH1 expression in human 786-0 cells at 1 uM incubated for 2.5 hrs by western blot analysis; format: functional, cell-based
Mus musculus [29] = assay: Anti-ferroptotic activity in ConA-induced C57 mouse acute liver injury model assessed as reduction in malondialdehyde levels at 10 mg/kg, ip pre-administered one day followed by treated with ConA measured after 24 hrs by MDA kit assay; format: functional, organism-based; details: time 48.0 hrs
[30] = Metabolic stability in human plasma assessed as half life at 1 uM by LC-MS/MS analysis; format: ADME, cell-free
SK-HEP1 [31] = assay: Inhibition of RSL3 induced lipid-ROS accumulation in human SK-HEP1 cells at 1 uM incubated for 0.5 hrs by C11-BODIPY 581/591 staining coupled with flow cytometry analysis; format: functional, cell-based
Mus musculus [32] = assay: Anti-ferroptotic activity in ConA-induced C57 mouse acute liver injury model assessed as assessed as reduction in PTGS2 mRNA levels in liver tissue at 10 mg/kg, ip pre-administered one day followed by treated with ConA measured after 24 hrs by qRT-PCR analysis; format: functional, organism-based; details: time 48.0 hrs
786-0 [33] = assay: Inhibition of RSL3 induced ferroptosis in human 786-0 cells assessed as cell viability in presence of iFSP1 at 1 uM measured after 24 hrs by CellTiter-LumiTM assay; format: functional, cell-based
[34] = Antioxidant activity assessed as free radical scavenging activity incubated for 30 mins in dark by DPPH assay relative to control; format: functional
HT-1080 = assay: Anti-ferroptotic activity in human GPX4 knockout HT-1080 cells assessed as cell viability at 1 uM incubated for 24 hrs by CellTiter-LumiTM plus luminescent cell viability assay; format: functional, cell-based
[35] = Microsomal stability in human liver microsomes assessed as hepatic extraction ratio at 0.1 uM by LC-MS/MS analysis; format: ADME, Microsome; details: read-out: ERH
Mus musculus [36] = assay: Anti-ferroptotic activity in ConA-induced C57 mouse liver injury model assessed as reduction in ALT levels in serum at 10 mg/kg, ip pre-treated 1 day followed by treated with ConA measured after 24 hrs; format: functional, organism-based; details: time 2.0 day
786-0 [37] = assay: Effect on TFRC expression in human 786-0 cells in presence of 0.25 uM RSL3 at 1 uM incubated for 2.5 hrs by Western blot analysis; format: functional, cell-based
786-0 [38] = assay: Inhibition of STS induced apoptosis in human 786-0 cells assessed as cell viability at 1 uM incubated for 24 hrs by CellTiter-LumiTM assay; format: functional, cell-based
786-0 [39] = assay: Effect on FTL expression in human 786-0 cells in presence of 0.25 uM RSL3 at 1 uM incubated for 2.5 hrs by Western blot analysis; format: functional, cell-based
SK-HEP1 [40] = assay: Inhibition of RSL3 induced lipid-ROS accumulation in human SK-HEP1 cells at 1 uM incubated for 2.5 hrs by C11-BODIPY 581/591 staining coupled with flow cytometry analysis; format: functional, cell-based
786-0 [41] = assay: Cytotoxicity against human 786-0 cells assessed as cell viability incubated for 24 hrs by CellTiter-LumiTM assay; format: functional
Mus musculus [42] = assay: Anti-ferroptotic activity in ConA-induced C57 mouse liver injury model assessed as reduction in AST levels in serum at 10 mg/kg, ip pre-treated 1 day followed by challenged with ConA measured after 24 hrs; format: functional, organism-based
[43] = Inhibition of RSL3 induced ferroptosis in human SK-HEP1 cells assessed as cell viability incubated for 24 hrs by CellTiter-LumiTM assay; format: functional, cell-based; details: SK-HEP1, 24 h
[44] = Microsomal stability in human liver microsomes assessed as half life at 0.1 uM by LC-MS/MS analysis; format: ADME, Microsome; details: liver microsomes
[45] = Inhibition of RSL3 induced ferroptosis in human MHCC97H cells assessed as cell viability incubated for 24 hrs by CellTiter-LumiTM assay; format: functional, cell-based
Mus musculus [46] = assay: Anti-ferroptotic activity in ConA-induced C57 mouse acute liver injury model assessed as assessed as reduction in 4-HNE accumulation in liver tissue at 10 mg/kg, ip pre-administered one day followed by treated with ConA measured after 24 hrs by 4-HNE staining based analysis; format: functional, organism-based; details: time 48.0 hrs
786-0 [47] = assay: Metal chelating activity assessed as Fe2+ chelation in human 786-0 cells assessed as intracellular ferrous ion level at 100 uM by FerroOrange fluorescent probe based assay; format: cell-based

## COc1cccc(C2N(c3ccccc3)N=C(C(C)=O)N2c2ccc(N(C)C)cc2)c1OCc1ccc(F)c(F)c1 (centres undefined)
[1]
  EC50: 122 nM
[2]
  CLhep predicted at 0.1 µM: 20.4 mL/min/kg
786-0 [3]
  Activity: inactive
Mus musculus [4]
  Activity: Active
786-0 [5]
  Activity: inactive
[6]
  hepatic extraction ratio at 0.1 µM: 0.987
[7]
  Activity: inactive
786-0 [8]
  Activity: No effect
786-0 [9]
  EC50: 60 nM
786-0 [10]
  Activity: No effect
786-0 [11]
  Activity: Active
786-0 [12]
  Activity: No effect
786-0 [13]
  Activity: No effect
786-0 [14]
  EC50: 62 nM
[15]
  EC50: 44 nM
786-0 [16]
  Activity: inactive
786-0 [17]
  Activity: inactive
[18]
  half-life at 0.1 µM: 2.87 min
786-0 [19]
  Activity: No effect
786-0 [20]
  inhibition: inactive
786-0 [21]
  inhibition: Dose-dependent-effect
786-0 [22]
  inhibition: Active; Eliminated As Fast As Fer-1
[23]
  CLhep predicted at 0.1 µM: 54.5 mL/min/kg
786-0 [24]
  Activity: No effect
[25]
  half-life at 1 µM: 6.58 h
[26]
  Activity: Dose-dependent-effect
[27]
  EC50: 186 nM
786-0 [28]
  Activity: No effect
Mus musculus [29]
  Activity: Active
[30]
  half-life at 1 µM: 33.7 h
SK-HEP1 [31]
  inhibition: Active
Mus musculus [32]
  Activity: Active
786-0 [33]
  inhibition: Active
[34]
  Activity: Active
HT-1080
  Activity: Active
[35]
  hepatic extraction ratio at 0.1 µM: 0.986
Mus musculus [36]
  Activity: Active
786-0 [37]
  Activity: inactive
786-0 [38]
  inhibition: inactive
786-0 [39]
  Activity: inactive
SK-HEP1 [40]
  inhibition: Active
786-0 [41]
  CC50: > 40000 nM
Mus musculus [42]
  Activity: Active
[43]
  EC50: 134 nM
[44]
  half-life at 0.1 µM: 5.74 min
[45]
  EC50: 288 nM
Mus musculus [46]
  Activity: Active

## CC(=O)N(O)CCCCCNC(=O)CCC(=O)N(O)CCCCCNC(=O)CCC(=O)N(O)CCCCCN
[7]
  Activity: Active
786-0 [47]
  Activity: Active
